The values that follow come from patent publication US10350252B2, “Cocoa polyphenols and their use in the treatment or prevention of eosinophilic esophagitis” (NESTEC S.A., priority 2013, dated 2019).

SMILES strings stand for the structures.

The test system of this assay is eosinophils in the esophagus. Put plainly: Mouse model of eosinophilic esophagitis (epicutaneous Aspergillus fumigatus sensitization, intranasal challenge): eosinophil count in H&E stained esophagus. Particulars: compared to the positive control (3X ASP sensitized, 1x ASP challenged, untreated); test substance in the food; harvest on day 32. Format: in vivo, Balb/c mice. As to the method:
It is the object of the invention to provide new and alternative solutions to the problem of preventing or treating eosinophilic esophagitis. […] The evaluation of ingredients which are useful in the treatment or prevention of eosinophilic esophagitis is performed using an established mouse model for eosinophilic esophagitis (Akei et al., “Epicutaneous antigen exposure primes for experimental eosinophilic esophagitis in mice”, Gastroenterology, 2005 September; 129(3):985-94). This model uses various parameters including the number of eosinophils in the esophagus as indicators for the effect on eosinophilic esophagitis. Accordingly, is ideally suited for the testing of compounds that are candidates for the treatment or prevention of eosinophilic esophagitis. FIG. 2. Eosinophil number in the esophagus. The esophagea were harvested and tissue histology was performed. Eosinophils were identified and counted on Hematoxylin & Eosin (H&E) stained slides per high powered field (hpf). The maximal number of eosinophils found in one hpf field in the whole esophagus is shown. The maximal number of eosinophils present in the esophagal epithelium is represented. […] Esophagi were harvest and stained with hematoxylin eosin and eosinophils were counted (maximum/high power field, see FIG. 2).

For the molecule `Oc1cc(O)c2c(c1)O[C@H](c1ccc(O)c(O)c1)[C@H](O)C2` [epicatechin], the “reduction of eosinophils in the esophagus (maximum number per high power field)” value is “no effect”.
